According to US12508239B2, “Alcohol derivatives as Kv7 potassium channel openers for use in epilepsy or seizures” (H. Lundbeck A/S, priority 2019, dated 2025):

How the values were obtained:
hKv7.2/hKv7.3 [1] = target: T1, hKv7.2/hKv7.3 (Homo sapiens, UniProt O43525+O43526); assay: Thallium influx assay for potassium channel activation; type: cell-based; details: HEK-hKv7.2/hKv7.3 cells; AUC readout normalized to a reference compound
T1 construct: P2A self-cleaving linker (remnant after ribosomal skipping); expressed in transfected cells; vector pcDNA5/FRT/TO
Procedure: (§1) A synthesized cDNA fragment encoding human Kv7.3 and human Kv7.2 separated by a P2A sequence was inserted into the pcDNA5/FRT/TO vector using the BamHI and XhoI restriction sites. The construct was then transfected into HEK Flp-In 293 cells using Lipofectamine2000. The transfected cells were grown for 48 hours in DMEM containing 10% (v/v) FBS and 1% PenStrep and subsequently maintained under selection in DMEM containing 10% (v/v) FBS, 1% PenStrep and 200 ug/mL Hygromycin B at 37° C. in a humidified atmosphere of 5% CO2.
The thallium influx assay for potassium channel activation was performed analogously to a published procedure (C. D. Weaver, et al., J Biomol Screen 2004, 9, 671-677) using the FLIPR Potassium Assay kit (Molecular Devices). HEK-hKv7.2/hKv7.3 cells were plated onto 96-well, black-walled, clear-bottomed culture plates (Corning, Acton, MA, USA) at a density of 80,000 cells/well (100 μl/well) if the cells were assayed the following day, or 40,000 cells/well (100 μl/well) if the cells were assayed two days after seeding.
On the assay day, the medium was removed after which 50 uL/well of test compound diluted to 2× final concentration in HBSS containing 20 mM HEPES, and 50 uL/well of 2× dye load buffer were added. The cells were then incubated for 60 min at room temperature in the dark. Chloride-free stimulation buffer containing Tl^+ and K^+ at 5× final concentration (5× concentration: 5 mM in both cases) and test compound at 1× final concentration, were prepared during the incubation. The cells were then assayed in a FDSS7000EX Functional Drug Screening System (Hamamatsu). Following 60 sec of baseline fluorescence signal reading at 0.1 Hz, and 10 sec at 1 Hz, 25 uL/well of stimulation buffer were added and the fluorescence continuously measured for 50 sec at 1 Hz followed, by 4 min at 0.1 Hz. Compound effect was quantified using AUC as readout and normalized to a reference compound, which was included on each plate.

rats = assay: Maximal electroshock seizure threshold test (MEST) in rats; type: in vivo, rat; details: for seizure threshold: rats
Procedure: (§2) Significant differences between drug-treated animals and controls were assessed according to Litchfield and Wilcoxon, Pharmacol Exp Ther. 1949; 96(1):99-113

mice = assay: Maximal electroshock seizure threshold test (MEST) in mice; type: in vivo, mouse; details: corneal electrodes
Procedure: as §2

hKv7.2/hKv7.3 [2] = target: T1, hKv7.2/hKv7.3; assay: Automated whole cell patch-clamp of stable HEK-hKv7.2/hKv7.3 cell line; type: cell-based; details: functional test of the cell line
Procedure: as §1

SMILES: C[C@H](NC(=O)CC(C)(O)C(F)(F)C(F)F)c1cccc(OC(F)(F)F)c1 (single isomer, unassigned) [Example 10a]
- EC50 (hKv7.2/hKv7.3 [1]): 0.65 µM

SMILES: C[C@H](NC(=O)C[C@@](C)(O)CC(F)(F)F)c1cccc(OC(F)(F)F)c1 (single isomer, unassigned) [Example 13a]
- EC50 (hKv7.2/hKv7.3 [1]): 1.9 µM

SMILES: C[C@H](NC(=O)CC1(O)CC(F)(F)C1)c1cccc(OC(F)(F)F)c1 [Example 5, (S)-2-(3,3-difluoro-1-hydroxycyclobutyl)-N-(1-(3-(trifluoromethoxy)phenyl)ethyl) acetamide]
- seizure threshold CC50 (current producing tonic hind limb extensor seizures in 50% of animals) (rats; rat, acute peroral administration 30 min prior to test, all doses tested 0.03-1 mg/kg, relative to vehicle): significantly increased
- seizure threshold (rats; pretreatment with a single acute administration): significant increase
- seizure threshold (rats; repeated administration (once daily, 15 days)): significant increase
- current required to induce an electroconvulsion, i.e. seizure threshold (mice): dose-dependent significant increase

SMILES: C[C@H](NC(=O)C[C@H](O)C1CC(F)(F)C1)c1cccc(OC(F)(F)F)c1 [Example 11a, 3-(3,3-Difluorocyclobutyl)-3-hydroxy-N—((S)-1-(3-(trifluoromethoxy)phenyl)ethyl) propanamide]
- EC50 (hKv7.2/hKv7.3 [1]): 1.5 µM

SMILES: CCOC(=O)Nc1ccc(NCc2ccc(F)cc2)cc1N [Retigabine, N-(2-amino-4-(4-fluorobenzylamino)-phenyl) carbamic acid ethyl ester]
- effect on Kv7-current (hKv7.2/hKv7.3 [2]): potentiated

SMILES: O=C1c2ccccc2C(Cc2ccncc2)(Cc2ccncc2)c2ccccc21 [XE991]
- effect on Kv7-current (hKv7.2/hKv7.3 [2]): sensitive
